Consider two compounds from US20200368315A1, “ANTIMICROBIAL PEPTIDES AND ADMIXTURES THEREOF SHOWING ANTIMICROBIAL ACTIVITY AGAINST GRAM-NEGATIVE PATHOGENS” (priority 2017, published 2020).

In brackets after ≈: the same amount, converted by molar mass. Several values for one entry are separate records, joined by “and”; a condition that tells them apart may be missing. Equal entries are not always repeated. Where two headings read alike, the source gives them in different places.

One may read the IC50 as the concentration needed to halve the response being measured. A higher IC50 goes with weaker potency in that assay. The term HC50 denotes the concentration giving 50% haemolysis. Higher therefore signals less damage to red cells.

For data set [1], the system named is E. aerogenes LMG 02094. Briefly: microbe, parasite or virus in culture. Format: cell-based, Enterobacter aerogenes. Conditions: for MIC: Klebsiella aerogenes. The essentials: (§1)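 Liquid growth inhibition assay in polypropylene plates: compound serially diluted 1/2, MHB, final inoculum 5*10^5 CFU/mL, duplicates. Endpoint visual.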
Data set [2] concerns human red blood cells (HRBc). Briefly: Hemolytic test. Here is the method:
Fresh human red blood cells (HRBc) were used for the hemolytic tests. After incubation with different concentrations of test compounds at 37° C. for 1 hour, the absorbance of the supernatant were measured.

Data set [3] is described as follows: Cell viability (ATP levels, CellTiter-Glo). The conditions noted are these: human. Here is the method:
ATP levels were measured by adding 50 μL of CellTiter-Glo reagent to each well and after 5 minutes of incubation luminescence was measured with SpectraMax i3.
96-well plates were seeded with HEK293 cells at concentration of 30,000 cells per well in 100 μL of DMEM growth media supplemented with 1% NEAA and 10% FBS. Border wells were filled with 100 μL of sterile PBS. The next day compounds were added to cells. Compounds were first 2× diluted in 96-well V-bottom plate in PBS. After that compounds were mixed with media in 96-deep-well plate for final concentrations. Growth media from 3 plates was aspirated and replaced with 100 μL of prepared compounds. Compounds were tested in duplicate. ATP levels were measured by adding 50 μL of CellTiter-Glo reagent to each well and after 5 minutes of incubation luminescence was measured with SpectraMax i3. […] The potential effects were then calculated and presented as IC50 values (μg/mL).

Data set [4] deals with Gram-negative pathogens. It counts as cell-based. Conditions: alone; over the 5 Gram-negative pathogens. Here is the method: Escherichia coli, Klebsiella pneumoniae, Pseudomonas aeruginosa, Acinetobacter baumannii, Enterobacter aerogenes were grown in Luria-Bertani (LB) broth shaken (200 rpm) or on LB agar at 37° C. […] MICs tests were performed in duplicate by a liquid growth inhibition microdilution assays in sterilized polypropylene microtiter plates according to Wiegand and […] [27]. […] The suspension was diluted in a ratio of 1:100 using Mueller Hinton Broth (MHB) and the final inoculum is 5*10^5 CFU/mL. […] The antimicrobials were diluted serially by 1/2 one by one and 50 uL diluted bacterial suspension were added to each well to make the final volume to be 100 uL. Growth control was accomplished by remove 10 uL from well 11 and dilute 1000 times to plate 1/10 suspension on the solid medium. […] The number of colonies on the control agar plate should be around 50 to ensure the concentration of the inoculum and the effectiveness of the experiment. The lowest concentration of the antimicrobials that inhibits visible growth of the indicator is identified as MIC.

Data set [5] relates to L. lactis MG1363. Briefly: microbe, parasite or virus in culture. The conditions noted are these: Lactococcus lactis, MG1363, read-out: MIC value of antimicrobial compounds alone.
The subject of data set [6] is P. aeruginosa LMG 6395. Briefly: microbe, parasite or virus in culture. It counts as cell-based, Pseudomonas aeruginosa. Conditions: for MIC: Pseudomonas aeruginosa. The procedure, abridged:
as §1

In data set [7] the test system is E. coli LMG15862. Briefly: microbe, parasite or virus in culture. Format: cell-based, Escherichia coli. The conditions noted are these: for MIC: Escherichia coli. The procedure, abridged:
as §1

The test system of data set [8] is A. baumannii LMG01041. The procedure, abridged: (§2)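 Chequerboard broth microdilution in MHB of two agents in combination, final volume 100 uL, with growth and sterility controls. MICs alone and in combination give FICI = MICac/MICa + MICbc/MICb; synergy FICI≤0.5, additive 0.5–1, indifferent 1–2, antagonism >2.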
The subject of data set [9] is K. pneumoniae LMG20218. The procedure, abridged: as §2
Data set [10] has as its system L. lactis MG1363. Conditions: L. lactis MG1363.
Data set [11] concerns K. pneumoniae LMG20218. Format: cell-based, Klebsiella pneumoniae. The conditions noted are these: nisin + GNP. An excerpt:
(§3) The test of synergistic effect was processed by conducting standard chequerboard broth microdilution assays. Nisin (Drug X) was loaded two fold serially diluted from row 1 to 10 in X-axis while GNPs (Drug Y) were loaded in eight two fold serially diluted concentrations from line A to H in Y-axis (FIG. 1). The original concentrations of peptides were MICs of each. Row 11 are used as growth control with no peptide was included, while row 12 with MHB medium-only wells was included as a sterility control as referred before. 50 uL fresh bacterial suspension was added to well 1-11 and final volume of each well on the plate is 100 uL.
(§4) To determine whether the combination therapy is additive, synergistic or antagonistic, fractional inhibitory concentration (FIC) indices were calculated. FICI=FICa+FICb=MICac/MICa+MICbc/MICb. The MICa/MICb is the MIC of compound A/B alone. MICac is the MIC of compound A in combination with compound B and MICbc is the MIC of compound B when it was combination with compound A. […]. FICa is FIC of compound A while FICb is FIC of compound B. The FICI is interpreted as follows: synergistic, FICI≤0.5; additive, 0.5<FICI<1; indifferent, 1<FICI<2; antagonistic, FICI>2.

Data set [12] deals with E. coli LMG15862. It counts as cell-based, Escherichia coli. The conditions noted are these: nisin + GNP.
Source text: as §3, §4

In data set [13] the test system is E. aerogenes LMG 02094. Format: cell-based, Enterobacter aerogenes. The conditions noted are these: nisin + GNP.
Source text: as §3, §4

Data set [14] deals with A. baumannii LMG01041. Format: cell-based, Acinetobacter baumannii. The conditions noted are these: nisin + GNP.
Source text: as §3, §4

For the compound `CN[C@H](CC(C)C)C(=O)N[C@H]1C(=O)N[C@@H](CC(N)=O)C(=O)N[C@H]2C(=O)N[C@H]3C(=O)N[C@H](C(=O)N[C@H](C(=O)O)c4cc(O)cc(O)c4-c4cc3ccc4O)[C@H](O)c3ccc(c(Cl)c3)Oc3cc2cc(c3O[C@@H]2O[C@H](CO)[C@@H](O)[C@H](O)[C@H]2O[C@H]2C[C@](C)(N)[C@H](O)[C@H](C)O2)Oc2ccc(cc2Cl)[C@H]1O` [Vancomycin, reference compound], the MIC in data set [1] (LMG02094, read-out: MIC value) came out at 192 µM (≈ 278 µg/mL); in data set [1] (LMG02094, read-out: MIC value of antimicrobial compounds alone), 192 µM (≈ 278 µg/mL); in data set [5], 0.125 µM (≈ 0.181 µg/mL); in data set [6] (LMG6395, read-out: MIC value) it was 128 µM (≈ 186 µg/mL); in data set [6] (LMG6395, read-out: MIC value of antimicrobial compounds alone), 128 µM (≈ 186 µg/mL); in data set [7] (LMG15862, read-out: MIC value) it was 64 µM (≈ 92.8 µg/mL). The MIC in data set [7] (LMG15862, read-out: MIC value of antimicrobial compounds alone) stood at 64 µM (≈ 92.8 µg/mL). In addition, in data set [2] (even at 500 μM), the “Hemolysis in the HRBc” value is recorded as “did not induce hemolysis”. In addition, in data set [2] (human red blood cells, 37° C., 1 hour), the “HC50 (hemolytic activity)” value is more than 500 µM. Moreover, in data set [3], the IC50 is > 44.2 µM and > 64 µg/mL. Moreover, the “MIC / concentration needed to inhibit growth” value in data set [4] is given as “at least 32 μM”. Also, the values for the MICa in data set [8] (MIC of vancomycin alone) and in data set [9] (MIC of vancomycin alone) were 32 µM and 128 µM, respectively.

With `CC[C@@H](C)[C@@H](NC(=O)[C@@H](CCCNC(=N)N)NC(=O)[C@@H](CCCNC(=N)N)NC(=O)[C@@H](Cc1ccccc1)NC(=O)[C@@H](CC(C)C)NC(=O)[C@@H](CCCNC(=N)N)NC(=O)[C@H](N)CCCNC(=N)N)C(=O)N[C@H](CC(C)C)C(=O)N[C@H](CCCNC(=N)N)C(=O)N[C@H](Cc1c[nH]c2ccccc12)C(=O)N[C@H](CC(C)C)C(N)=O` [GNP-D6], the “MIC value of antimicrobial compounds alone” value in data set [10] was determined as 2 µM. Further, the MIC value in data set [1] (alone, E. aerogenes LMG 02094) was determined as 2 µM (≈ 3.17 µg/mL); in [6] (alone, P. aeruginosa LMG 6395), 2 µM (≈ 3.17 µg/mL); in data set [7] (alone, E. coli LMG15862), 2 µM (≈ 3.17 µg/mL). For the same compound, the concentration for 50% haemolysis (HC50) in data set [2] (HRBc, 37° C., 1 hour) came out at 168.9 µM. Also, the “HC50 relative to the working concentration” value in data set [2] (working concentration 2 μM) is listed as 80 fold. Further, the “MIC / concentration needed to inhibit growth” value in [4] was found to be 2 µM (≈ 3.17 µg/mL). The FICI in [11] is 0.375; in data set [12], 0.375; in data set [13], 0.375; in [14] it was 0.313; in data set [8] (vancomycin + GNP), 0.5 and 0.625; in data set [9] (vancomycin + GNP), 0.75 and 0.5.
